Columns and labels:
Experiment in all cases: radiometric filter-binding kinase assay
[1] = target: EPHA4 (human) (UniProt P54764)
[2] = target: EPHB2 (human) (UniProt P29323)
[3] = target: PAK7 (human) (UniProt Q9P286)
[4] = target: MST4 (human) (UniProt Q9P289)
[5] = target: RIPK2 (human) (UniProt O43353)
[6] = target: JAK2 JH1 JH2 (human) (UniProt O60674)
[7] = target: INSR (human) (UniProt P06213)
[8] = target: PRKCA (human) (UniProt P17252)
[9] = target: ERBB4 (human) (UniProt Q15303)
[10] = target: MINK1 (human) (UniProt Q8N4C8)
[11] = target: PHKG1 (human) (UniProt Q16816)
[12] = target: SRPK1 (human) (UniProt Q96SB4)
[13] = target: PRKACA (human) (UniProt P17612)
[14] = target: NEK2 (human) (UniProt P51955)
[15] = target: MAP2K1 (human) (UniProt Q02750); settings: compound 1.0 µM
[16] = tested on: LCK (mouse); settings: accession and sequence are those of the human protein
[17] = target: EPHA2 (human) (UniProt P29317)
[18] = target: BTK (human) (UniProt Q06187)
[19] = target: HIPK3 (human) (UniProt Q9H422)
[20] = target: BRSK1 (human) (UniProt Q8TDC3)
[21] = target: MKNK1 (human) (UniProt Q9BUB5)
[22] = target: NUAK1 (human) (UniProt O60285)
[23] = target: INSRR (human) (UniProt P14616)
[24] = target: MAPK15 (human) (UniProt Q8TD08)
[25] = target: RPS6KA5 KD1 KD2 (human) (UniProt O75582)
[26] = target: CSK (human) (UniProt P41240)
[27] = target: MARK1 (human) (UniProt Q9P0L2)
[28] = target: CDK2 CCNA2 (human) (UniProt P20248+P24941)
[29] = target: DYRK2 (human) (UniProt Q92630)
[30] = target: NEK6 (human) (UniProt Q9HC98)
[31] = target: CAMKK2 (human) (UniProt Q96RR4)
[32] = target: CaMK1 (human) (UniProt Q14012)
[33] = target: MAPKAPK2 (human) (UniProt P49137)
[34] = tested on: PRKAA1 or PRKAA2 (rat); settings: accession and sequence are those of the human protein
[35] = target: MARK2 (human) (UniProt Q7KZI7)

Chain of PAK7 (human) (Q9P286 whole entry, looked up): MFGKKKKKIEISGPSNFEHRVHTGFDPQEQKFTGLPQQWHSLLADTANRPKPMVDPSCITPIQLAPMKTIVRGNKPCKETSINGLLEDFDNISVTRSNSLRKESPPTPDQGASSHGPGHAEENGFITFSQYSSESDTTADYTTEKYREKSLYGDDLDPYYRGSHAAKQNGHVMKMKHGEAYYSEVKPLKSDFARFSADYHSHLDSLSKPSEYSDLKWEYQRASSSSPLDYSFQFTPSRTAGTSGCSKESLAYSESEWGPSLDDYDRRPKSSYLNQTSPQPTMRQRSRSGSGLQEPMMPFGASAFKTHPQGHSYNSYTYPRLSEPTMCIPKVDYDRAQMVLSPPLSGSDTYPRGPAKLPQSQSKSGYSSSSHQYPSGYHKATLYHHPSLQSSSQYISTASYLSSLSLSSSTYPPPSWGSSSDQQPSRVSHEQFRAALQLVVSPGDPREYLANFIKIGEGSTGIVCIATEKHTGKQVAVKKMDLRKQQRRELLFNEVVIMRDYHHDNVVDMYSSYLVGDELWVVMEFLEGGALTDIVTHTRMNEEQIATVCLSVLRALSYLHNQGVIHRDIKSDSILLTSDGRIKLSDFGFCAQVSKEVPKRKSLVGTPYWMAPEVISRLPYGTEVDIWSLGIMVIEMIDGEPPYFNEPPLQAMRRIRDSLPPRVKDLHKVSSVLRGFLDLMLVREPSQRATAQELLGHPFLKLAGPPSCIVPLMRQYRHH
Chain of MINK1 (human) (Q8N4C8 whole entry, looked up): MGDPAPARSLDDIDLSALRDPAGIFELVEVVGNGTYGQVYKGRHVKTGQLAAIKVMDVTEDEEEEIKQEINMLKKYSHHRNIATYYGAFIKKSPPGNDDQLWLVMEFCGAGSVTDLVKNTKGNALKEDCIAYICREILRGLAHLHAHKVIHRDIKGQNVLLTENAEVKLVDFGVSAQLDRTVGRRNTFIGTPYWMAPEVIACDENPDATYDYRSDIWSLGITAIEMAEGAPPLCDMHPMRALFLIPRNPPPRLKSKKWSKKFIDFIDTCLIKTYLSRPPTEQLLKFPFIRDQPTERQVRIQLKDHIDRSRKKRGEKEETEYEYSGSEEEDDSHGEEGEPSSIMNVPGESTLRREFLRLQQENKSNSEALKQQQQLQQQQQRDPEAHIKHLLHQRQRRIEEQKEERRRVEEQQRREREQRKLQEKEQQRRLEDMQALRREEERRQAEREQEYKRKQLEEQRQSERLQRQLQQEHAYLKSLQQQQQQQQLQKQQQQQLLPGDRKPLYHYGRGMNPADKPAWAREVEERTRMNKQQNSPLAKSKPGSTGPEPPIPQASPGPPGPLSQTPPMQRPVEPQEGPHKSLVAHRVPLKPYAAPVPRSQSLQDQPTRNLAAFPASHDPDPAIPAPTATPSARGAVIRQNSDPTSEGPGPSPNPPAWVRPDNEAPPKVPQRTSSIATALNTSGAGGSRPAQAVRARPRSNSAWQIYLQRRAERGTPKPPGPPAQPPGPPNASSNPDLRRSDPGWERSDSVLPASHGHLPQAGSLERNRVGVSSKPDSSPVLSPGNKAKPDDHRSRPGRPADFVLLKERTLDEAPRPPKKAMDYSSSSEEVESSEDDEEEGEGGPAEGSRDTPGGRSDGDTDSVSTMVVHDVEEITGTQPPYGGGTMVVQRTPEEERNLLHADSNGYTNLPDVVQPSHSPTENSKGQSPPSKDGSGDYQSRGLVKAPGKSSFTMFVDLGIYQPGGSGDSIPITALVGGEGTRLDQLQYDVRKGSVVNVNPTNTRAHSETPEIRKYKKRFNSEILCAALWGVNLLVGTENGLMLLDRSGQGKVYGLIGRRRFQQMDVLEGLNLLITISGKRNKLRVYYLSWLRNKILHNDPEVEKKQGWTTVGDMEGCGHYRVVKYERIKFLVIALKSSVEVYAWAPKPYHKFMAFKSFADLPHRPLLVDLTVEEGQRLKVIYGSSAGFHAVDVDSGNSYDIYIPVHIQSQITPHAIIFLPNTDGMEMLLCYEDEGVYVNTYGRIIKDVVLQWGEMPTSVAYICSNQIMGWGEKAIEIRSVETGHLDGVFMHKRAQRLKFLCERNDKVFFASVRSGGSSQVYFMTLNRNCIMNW
Chain of RIPK2 (human) (O43353 whole entry, looked up): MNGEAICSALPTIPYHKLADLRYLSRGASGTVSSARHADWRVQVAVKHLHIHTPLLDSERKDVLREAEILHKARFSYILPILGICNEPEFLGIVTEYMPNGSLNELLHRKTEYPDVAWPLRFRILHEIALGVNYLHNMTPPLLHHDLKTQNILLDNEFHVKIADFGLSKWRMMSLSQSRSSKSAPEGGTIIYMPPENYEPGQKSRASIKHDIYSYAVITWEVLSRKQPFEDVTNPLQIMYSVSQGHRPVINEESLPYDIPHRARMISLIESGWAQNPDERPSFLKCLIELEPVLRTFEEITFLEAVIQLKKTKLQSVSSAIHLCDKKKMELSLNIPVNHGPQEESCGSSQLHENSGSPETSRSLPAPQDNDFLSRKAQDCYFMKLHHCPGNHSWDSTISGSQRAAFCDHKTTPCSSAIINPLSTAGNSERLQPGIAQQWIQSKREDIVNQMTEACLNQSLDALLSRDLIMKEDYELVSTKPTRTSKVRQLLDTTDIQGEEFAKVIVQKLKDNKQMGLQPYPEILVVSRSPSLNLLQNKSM
Chain of NUAK1 (human) (O60285 whole entry, looked up): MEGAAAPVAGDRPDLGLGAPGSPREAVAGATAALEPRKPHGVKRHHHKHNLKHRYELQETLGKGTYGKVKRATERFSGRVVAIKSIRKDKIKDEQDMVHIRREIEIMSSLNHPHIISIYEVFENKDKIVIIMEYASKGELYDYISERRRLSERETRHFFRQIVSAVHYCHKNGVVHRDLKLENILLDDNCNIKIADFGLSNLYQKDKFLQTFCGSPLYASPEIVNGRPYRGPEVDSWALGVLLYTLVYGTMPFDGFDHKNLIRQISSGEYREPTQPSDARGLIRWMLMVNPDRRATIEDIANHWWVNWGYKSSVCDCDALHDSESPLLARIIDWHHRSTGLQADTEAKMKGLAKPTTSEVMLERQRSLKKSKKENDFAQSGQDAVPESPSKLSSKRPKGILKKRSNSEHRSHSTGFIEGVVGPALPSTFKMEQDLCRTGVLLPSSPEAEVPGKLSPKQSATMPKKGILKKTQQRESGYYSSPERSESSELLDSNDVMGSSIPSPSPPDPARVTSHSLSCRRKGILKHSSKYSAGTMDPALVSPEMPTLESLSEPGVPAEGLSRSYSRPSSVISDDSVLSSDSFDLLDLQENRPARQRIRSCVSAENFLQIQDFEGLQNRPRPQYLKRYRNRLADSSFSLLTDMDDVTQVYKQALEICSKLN
Chain of DYRK2 (human) (Q92630 whole entry, looked up): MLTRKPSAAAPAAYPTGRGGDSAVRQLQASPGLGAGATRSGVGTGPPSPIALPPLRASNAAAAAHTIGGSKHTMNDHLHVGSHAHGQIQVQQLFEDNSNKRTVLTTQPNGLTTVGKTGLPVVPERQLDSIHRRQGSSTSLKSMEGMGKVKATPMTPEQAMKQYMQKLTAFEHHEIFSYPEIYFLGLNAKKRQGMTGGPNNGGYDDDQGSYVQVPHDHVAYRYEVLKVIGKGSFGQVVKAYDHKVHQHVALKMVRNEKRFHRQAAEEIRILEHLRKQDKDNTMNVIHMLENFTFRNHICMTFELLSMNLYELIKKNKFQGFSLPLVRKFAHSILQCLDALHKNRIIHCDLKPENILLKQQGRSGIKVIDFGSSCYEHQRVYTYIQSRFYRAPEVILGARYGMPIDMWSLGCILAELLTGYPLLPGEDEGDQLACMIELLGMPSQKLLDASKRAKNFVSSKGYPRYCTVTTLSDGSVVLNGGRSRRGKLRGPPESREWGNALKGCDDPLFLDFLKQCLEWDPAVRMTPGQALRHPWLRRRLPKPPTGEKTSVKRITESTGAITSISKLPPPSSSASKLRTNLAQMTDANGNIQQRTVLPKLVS
Chain of EPHA2 (human) (P29317 whole entry, looked up): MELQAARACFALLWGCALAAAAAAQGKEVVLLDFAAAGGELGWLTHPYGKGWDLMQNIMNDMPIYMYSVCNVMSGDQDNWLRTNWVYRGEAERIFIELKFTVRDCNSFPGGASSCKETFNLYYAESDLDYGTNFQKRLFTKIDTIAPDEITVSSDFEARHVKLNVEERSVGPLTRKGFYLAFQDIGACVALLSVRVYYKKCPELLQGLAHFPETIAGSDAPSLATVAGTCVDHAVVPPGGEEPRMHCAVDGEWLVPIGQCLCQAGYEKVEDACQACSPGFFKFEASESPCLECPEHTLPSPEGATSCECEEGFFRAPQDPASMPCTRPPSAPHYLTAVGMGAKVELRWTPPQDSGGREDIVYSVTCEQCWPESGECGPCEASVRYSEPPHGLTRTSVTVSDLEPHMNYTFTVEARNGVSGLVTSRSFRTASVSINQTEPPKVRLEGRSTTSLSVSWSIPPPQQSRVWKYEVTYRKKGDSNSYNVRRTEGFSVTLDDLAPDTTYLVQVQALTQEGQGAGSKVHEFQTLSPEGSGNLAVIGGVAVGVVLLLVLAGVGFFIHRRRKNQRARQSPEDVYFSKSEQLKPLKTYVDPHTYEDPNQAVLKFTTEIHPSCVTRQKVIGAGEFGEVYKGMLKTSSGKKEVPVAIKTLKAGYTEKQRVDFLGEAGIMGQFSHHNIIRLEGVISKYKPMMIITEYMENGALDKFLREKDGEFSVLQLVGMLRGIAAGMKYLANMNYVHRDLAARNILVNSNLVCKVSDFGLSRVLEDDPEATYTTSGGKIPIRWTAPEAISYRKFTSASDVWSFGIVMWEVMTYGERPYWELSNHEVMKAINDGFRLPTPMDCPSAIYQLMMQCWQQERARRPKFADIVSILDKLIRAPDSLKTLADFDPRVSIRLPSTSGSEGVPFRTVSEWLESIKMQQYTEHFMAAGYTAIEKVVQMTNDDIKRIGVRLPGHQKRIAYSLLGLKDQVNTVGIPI

Work on `Cc1cccc(-c2nn(C(=S)Nc3ccccc3)cc2-c2ccnc3ccccc23)n1` yielded a residual activity ([1]; compound 0.1 µM) of 108%, a residual activity ([1]; compound 1.0 µM) of 98% and a residual activity ([2]; compound 0.1 µM) of 113%. The residual activity ([2]; compound 1.0 µM) was 95%, the residual activity ([3]; compound 0.1 µM) was 107% and the residual activity ([3]; compound 1.0 µM) was 102%. It also gave a residual activity ([4]; compound 0.1 µM) of 95%, a residual activity ([4]; compound 1.0 µM) of 99% and a residual activity ([5]; compound 0.1 µM) of 26%. The residual activity ([5]; compound 1.0 µM) was 9%, the residual activity ([6]; compound 0.1 µM) was 107% and the residual activity ([6]; compound 1.0 µM) was 93%. The residual activity ([7]; compound 0.1 µM) was 108%, the residual activity ([7]; compound 1.0 µM) was 94% and the residual activity ([8]; compound 0.1 µM) was 97%. It also gave a residual activity ([8]; compound 1.0 µM) of 102%, a residual activity ([9]; compound 0.1 µM) of 104% and a residual activity ([9]; compound 1.0 µM) of 82%. The residual activity ([10]; compound 0.1 µM) was 66%, the residual activity ([10]; compound 1.0 µM) was 13% and the residual activity ([11]; compound 0.1 µM) was 100%. It also gave a residual activity ([11]; compound 1.0 µM) of 112%, a residual activity ([12]; compound 0.1 µM) of 101% and a residual activity ([12]; compound 1.0 µM) of 84%. The residual activity ([13]; compound 0.1 µM) was 109%, the residual activity ([13]; compound 1.0 µM) was 99% and the residual activity ([14]; compound 0.1 µM) was 109%. It also gave a residual activity ([14]; compound 1.0 µM) of 92%, a residual activity [15] of 98% and a residual activity ([16]; compound 0.1 µM) of 105%. For the same compound, the residual activity ([16]; compound 1.0 µM) was 62%, the residual activity ([17]; compound 0.1 µM) was 105% and the residual activity ([17]; compound 1.0 µM) was 92%. For the same compound, the residual activity ([18]; compound 0.1 µM) was 110%, the residual activity ([18]; compound 1.0 µM) was 104% and the residual activity ([19]; compound 0.1 µM) was 105%. For the same compound, the residual activity ([19]; compound 1.0 µM) was 99%, the residual activity ([20]; compound 0.1 µM) was 110% and the residual activity ([20]; compound 1.0 µM) was 95%. The residual activity ([21]; compound 0.1 µM) was 103%, the residual activity ([21]; compound 1.0 µM) was 93% and the residual activity ([22]; compound 0.1 µM) was 96%. The residual activity ([22]; compound 1.0 µM) was 84%, the residual activity ([23]; compound 0.1 µM) was 98% and the residual activity ([23]; compound 1.0 µM) was 103%. It also gave a residual activity ([24]; compound 0.1 µM) of 108%, a residual activity ([24]; compound 1.0 µM) of 93% and a residual activity ([25]; compound 0.1 µM) of 110%. It also gave a residual activity ([25]; compound 1.0 µM) of 101%, a residual activity ([26]; compound 0.1 µM) of 97% and a residual activity ([26]; compound 1.0 µM) of 93%. It also gave a residual activity ([27]; compound 0.1 µM) of 107%, a residual activity ([27]; compound 1.0 µM) of 113% and a residual activity ([28]; compound 0.1 µM) of 93%. It also gave a residual activity ([28]; compound 1.0 µM) of 102%, a residual activity ([29]; compound 0.1 µM) of 100% and a residual activity ([29]; compound 1.0 µM) of 95%. It also gave a residual activity ([30]; compound 0.1 µM) of 107%, a residual activity ([30]; compound 1.0 µM) of 100% and a residual activity ([31]; compound 0.1 µM) of 100%. It also gave a residual activity ([31]; compound 1.0 µM) of 104%, a residual activity ([32]; compound 0.1 µM) of 103% and a residual activity ([32]; compound 1.0 µM) of 107%. For the same compound, the residual activity ([33]; compound 0.1 µM) was 117%, the residual activity ([33]; compound 1.0 µM) was 108% and the residual activity ([34]; compound 0.1 µM) was 99%. The residual activity ([34]; compound 1.0 µM) was 82%, the residual activity ([35]; compound 0.1 µM) was 121% and the residual activity ([35]; compound 1.0 µM) was 110%.

From the kinase profiling compilation of Christmann-Franck et al. (2016)
